The source of these data is the SangsterLogP compilation.

This data set can be described thus: method code SF, from PMID: 5081587.
Consider `CN(C)/N=N/c1nc[nH]c1C(N)=O`, for which the logP – broadly, the decadic logarithm of the partition coefficient of the neutral form, usually between octanol and water – was -0.24. `O=NN(CCCl)C(=O)NC1CCCC1` had a logP of 2.19. To `O=NN(CCCl)C(=O)NC1CC2CCC1C2` (stereo not drawn) belongs 2.98; to `O=NN(CCF)C(=O)NC1CCSCC1`, 1.43. For `O=NN(CCCl)C(=O)NC1CCS(=O)(=O)CC1` the value was 0.19; for `O=NN(CCCl)C(=O)NC1CSCSC1`, 2.08.

In the case of `O=P1(N(CCCl)CCCl)NCCCO1` (stereo not drawn), the logP was found to be 0.63. As to `O=NN(CCCl)C(=O)NC1CCSCC1`, the logP came out at 2.07. For `O=NN(CCF)C(=O)NC1CSCSC1` the value was 1.54; for `O=NN(CCCl)C(=O)NC1CCCCC1Cl` (stereo not drawn), 2.73. To `O=NN(CCCl)C(=O)NC1C=CCCC1` (stereo not drawn) belongs 2.45.

`O=NN(CCCl)C(=O)NC1CCC(=O)NC1=O` (stereo not drawn): the logP was 0.37. With `O=NN(CCCl)C(=O)NCCCl`, the logP was 1.53.
